{
  "source": "patent US20150133426A1",
  "about": "“SUBSTITUTED PYRROLOPYRIMIDINES” (BAYER PHARMA AKTIENGESELLSCHAFT, priority 2012, published 2015)",
  "note": "pIC50: −log10 of the molar value.",
  "data": [
    {"target": "T1, human full-length MKNK1 (Homo sapiens, UniProt Q9BUB5, T385D)", "T1 construct": "purchased Carna Biosciences 02-145; host or cells: insect cells, baculovirus expression system", "T1 sequence (Q9BUB5 1-424 isoform Q9BUB5-2 T344D)": "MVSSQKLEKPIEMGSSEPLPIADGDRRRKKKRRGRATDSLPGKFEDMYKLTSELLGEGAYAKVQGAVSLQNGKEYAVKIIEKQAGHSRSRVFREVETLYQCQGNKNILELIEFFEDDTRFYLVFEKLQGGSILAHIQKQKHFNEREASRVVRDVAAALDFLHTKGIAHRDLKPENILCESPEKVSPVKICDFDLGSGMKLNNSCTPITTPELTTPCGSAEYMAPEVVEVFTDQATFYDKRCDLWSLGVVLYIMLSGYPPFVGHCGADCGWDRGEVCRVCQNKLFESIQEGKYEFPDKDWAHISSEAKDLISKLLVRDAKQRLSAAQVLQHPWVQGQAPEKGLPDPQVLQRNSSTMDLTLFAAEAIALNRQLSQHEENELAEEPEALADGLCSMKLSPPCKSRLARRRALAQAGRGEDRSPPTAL", "assay": "MKNK1 kinase high ATP assay (TR-FRET)", "assay_type": "biochemical", "conditions": "high ATP (2 mM), 15 min preincubation with enzyme, GST-MKNK1 (T344D)", "protocol": "MKNK1-inhibitory activity at high ATP of compounds of the present invention after their preincubation with MKNK1 was quantified employing the TR-FRET-based MKNK1 high ATP assay as described in the following paragraphs.\nA recombinant fusion protein of Glutathione-S-Transferase (GST, N-terminally) and human full-length MKNK1 (amino acids 1-424 and T344D of accession number BAA 19885.1), expressed in insect cells using baculovirus expression system and purified via glutathione sepharose affinity chromatography, was purchased from Carna Biosciences (product no 02-145) and used as enzyme. As substrate for the kinase reaction the biotinylated peptide biotin-Ahx-IKKRKLTRRKSLKG (C-terminus in amide form) was used, which can be purchased e.g. from the company Biosyntan (Berlin-Buch, Germany).\nFor the assay 50 nL of a 100fold concentrated solution of the test compound in DMSO was pipetted into a black low volume 384well microtiter plate (Greiner Bio-One, Frickenhausen, Germany), 2 μL of a solution of MKNK1 in aqueous assay buffer [50 mM HEPES pH 7.5, 5 mM MgCl2, 1.0 mM dithiothreitol, 0.005% (v/v) Nonidet-P40 (Sigma)] was added and the mixture was incubated for 15 min at 22° C. to allow pre-binding of the test compounds to the enzyme before the start of the kinase reaction. Then the kinase reaction was started by the addition of 3 μL of a solution of adenosine-tri-phosphate (ATP, 3.3 mM=>final conc. in the 5 μL assay volume is 2 mM) and substrate (0.1 μM=>final conc. in the 5 μL assay volume is 0.06 μM) in assay buffer and the resulting mixture was incubated for a reaction time of 30 min at 22° C. The concentration of MKNK1 was adjusted depending of the activity of the enzyme lot and was chosen appropriate to have the assay in the linear range, typical concentrations were in the range of 0.003 μg/mL. The reaction was stopped by the addition of 5 μL of a solution of TR-FRET detection reagents (5 nM streptavidine-XL665 [Cisbio Bioassays, Codolet, France] and 1 nM anti-ribosomal protein […] (pSer236)-antibody from Invitrogen [#44921G] and 1 nM LANCE EU-W1024 labeled ProteinG [Perkin-Elmer, product no. AD0071]) in an aqueous EDTA-solution (100 mM EDTA, 0.1% (w/v) bovine serum albumin in 50 mM HEPES pH 7.5).\nThe resulting mixture was incubated for 1 h at 22° C. to allow the formation of complex between the phosphorylated biotinylated peptide and the detection reagents. Subsequently the amount of phosphorylated substrate was evaluated by measurement of the resonance energy transfer from the Eu-chelate to the streptavidine-XL. Therefore, the fluorescence emissions at 620 nm and 665 nm after excitation at 350 nm were measured in a TR-FRET reader, e.g. a Rubystar (BMG Labtechnologies, Offenburg, Germany) or a Viewlux (Perkin-Elmer). The ratio of the emissions at 665 nm and at […] was taken as the measure for the amount of phosphorylated substrate. The data were normalised (enzyme reaction without inhibitor=0% inhibition, all other assay components but no enzyme=100% inhibition).", "values": [
      {"smiles": "CC(C)Oc1cc(F)ccc1Nc1ncnc2c1c1c(n2C)CCC(C(=O)NCCCS(C)(=O)=O)C1", "note": "(racemic) [Example 25, (RS)-4-[(4-Fluoro-2-isopropoxyphenyl)amino]-9-methyl-N-[3-(methylsulfonyl)propyl]-6,7,8,9-tetrahydro-5H-pyrimido[4,5-b]indole-6-carboxamide]", "pIC50": 6.42},
      {"smiles": "COc1cc(F)c(F)cc1Nc1ncnc2[nH]c3c(c12)CC(C(=O)NCCCS(C)(=O)=O)CC3", "note": "(racemic) [Example 161, (RS)-4-[(4,5-Difluoro-2-methoxyphenyl)amino]-N-[3-(methylsulfonyl)propyl]-6,7,8,9-tetrahydro-5H-pyrimido[4,5-b]indole-6-carboxamide]", "pIC50": 7.46},
      {"smiles": "COc1cc(F)c(Cl)cc1Nc1ncnc2[nH]c3c(c12)CC(C(=O)NCCCS(C)(=O)=O)CC3", "note": "(racemic) [Example 157, (RS)-4-[(5-Chloro-4-fluoro-2-methoxyphenyl)amino]-N-[3-(methylsulfonyl)propyl]-6,7,8,9-tetrahydro-5H-pyrimido[4,5-b]indole-6-carboxamide]", "pIC50": 6.35},
      {"smiles": "CS(=O)(=O)CCCNC(=O)C1CCc2[nH]c3ncnc(Nc4ccc5c(c4)OC(F)(F)O5)c3c2C1", "note": "(racemic) [Example 36, (RS)-4-[(2,2-Difluoro-1,3-benzodioxol-5-yl)amino]-N-[3-(methylsulfonyl)propyl]-6,7,8,9-tetrahydro-5H-pyrimido[4,5-b]indole-6-carboxamide]", "pIC50": 5.50},
      {"smiles": "COc1ccc(C(F)(F)F)cc1Nc1ncnc2[nH]c3c(c12)CC(F)(F)CC3", "note": "[Example 145]", "pIC50": "≤ 4.70"},
      {"smiles": "CCCOc1ccc(F)cc1Nc1ncnc2[nH]c3c(c12)CC(C(=O)NCCCS(C)(=O)=O)CC3", "note": "(racemic) [Example 160, (RS)-4-[(5-Fluoro-2-propoxyphenyl)amino]-N-[3-(methylsulfonyl)propyl]-6,7,8,9-tetrahydro-5H-pyrimido[4,5-b]indole-6-carboxamide]", "pIC50": 7.43},
      {"smiles": "CC(C)Oc1cc2[nH]ncc2cc1Nc1ncnc2[nH]c3c(c12)CC(C(=O)NCCCS(C)(=O)=O)CC3", "note": "(racemic) [Example 230, (RS)—N-[3-(Methylsulfonyl)propyl]-4-{[6-(propan-2-yloxy)-1H-indazol-5-yl]amino}-6,7,8,9-tetrahydro-5H-pyrimido[4,5-b]indole-6-carboxamide]", "pIC50": 9.00},
      {"smiles": "COc1ccc(F)cc1Nc1ncnc2[nH]c3c(c12)CC(C(=O)NCCCS(C)(=O)=O)CC3", "note": "(racemic) [Example 39, (RS)-4-[(5-Fluoro-2-methoxyphenyl)amino]-N-[3-(methylsulfonyl)propyl]-6,7,8,9-tetrahydro-5H-pyrimido[4,5-b]indole-6-carboxamide]", "pIC50": 7.23},
      {"smiles": "CC(C)Oc1cc(F)ccc1Nc1ncnc2[nH]c3c(c12)CC(C(=O)NCCCS(C)(=O)=O)CC3", "note": "(racemic) [Example 28, (RS)-4-{[4-Fluoro-2-(propan-2-yloxy)phenyl]amino}-N-[3-(methylsulfonyl)propyl]-6,7,8,9-tetrahydro-5H-pyrimido[4,5-b]indole-6-carboxamide]", "pIC50": 8.10},
      {"smiles": "CC(C)Oc1cc(F)ccc1Nc1ncnc2[nH]c3c(c12)CC(C(=O)O)CC3", "note": "(racemic) [Example 183, (RS)-4-{[4-Fluoro-2-(propan-2-yloxy)phenyl]amino}-6,7,8,9-tetrahydro-5H-pyrimido[4,5-b]indole-6-carboxylic acid]", "pIC50": 6.39},
      {"smiles": "CS(=O)(=O)CCCNC(=O)C1CCc2[nH]c3ncnc(Nc4ccccc4OC(F)(F)F)c3c2C1", "note": "(racemic) [Example 32, (RS)—N-[3-(Methylsulfonyl)propyl]-4-{[2-(trifluoromethoxy)phenyl]amino}-6,7,8,9-tetrahydro-5H-pyrimido[4,5-b]indole-6-carboxamide]", "pIC50": 6.13},
      {"smiles": "c1nc(Nc2ccc3[nH]ncc3c2)c2c3c([nH]c2n1)CCSC3", "note": "[Example 66, N-(1H-Indazol-5-yl)-5,7,8,9-tetrahydrothiopyrano[3′,4′:4,5]pyrrolo[2,3-d]pyrimidin-4-amine]", "pIC50": 7.37},
      {"smiles": "Clc1ccc2c(c1)CCN2c1ncnc2[nH]c3c(c12)CCCC3", "note": "[Example 122]", "pIC50": 5.37},
      {"smiles": "CCNC(=O)C1CCc2[nH]c3ncnc(Nc4cc(Cl)c(Cl)cc4OC)c3c2C1", "note": "(racemic) [Example 21, (RS)-4-[(4,5-Dichloro-2-methoxyphenyl)amino]-N-ethyl-6,7,8,9-tetrahydro-5H-pyrimido[4,5-b]indole-6-carboxamide]", "pIC50": 7.92},
      {"smiles": "O=[N+]([O-])c1ccc2c(c1)CCN2c1ncnc2[nH]c3c(c12)CCCC3", "note": "[Example 123]", "pIC50": 5.81},
      {"smiles": "CSc1cc2c(cc1Nc1ncnc3[nH]c4c(c13)CC(C(=O)NCCCS(C)(=O)=O)CC4)OCCO2", "note": "(racemic) [Example 65, (RS)-4-{[7-(Methylsulfanyl)-2,3-dihydro-1,4-benzodioxin-6-yl]amino}-N-[3-(methylsulfonyl)propyl]-6,7,8,9-tetrahydro-5H-pyrimido[4,5-b]indole-6-carboxamide]", "pIC50": 4.88},
      {"smiles": "O=C(Nc1ccccc1)C1CCc2[nH]c3ncnc(Nc4ccccc4OC4CCCC4)c3c2C1", "note": "(racemic) [Example 193, (RS)-4-{[2-(Cyclopentyloxy)phenyl]amino}-N-phenyl-6,7,8,9-tetrahydro-5H-pyrimido[4,5-b]indole-6-carboxamide]", "pIC50": 5.54},
      {"smiles": "O=C(NCc1ccccc1)C1CCc2[nH]c3ncnc(N4CCc5ccccc54)c3c2C1", "note": "(racemic) [Example 209, (RS)—N-Benzyl-4-(2,3-dihydro-1H-indol-1-yl)-6,7,8,9-tetrahydro-5H-pyrimido[4,5-b]indole-6-carboxamide]", "pIC50": 6.35},
      {"smiles": "CS(=O)(=O)CCCNC(=O)C1CCc2[nH]c3ncnc(Nc4ccccc4N4CCOCC4)c3c2C1", "note": "(racemic) [Example 30, (RS)—N-[3-(Methylsulfonyl)propyl]-4-{[2-(morpholin-4-yl)phenyl]amino}-6,7,8,9-tetrahydro-5H-pyrimido[4,5-b]indole-6-carboxamide]", "pIC50": 7.28},
      {"smiles": "COc1ccc(Cl)cc1Nc1ncnc2[nH]c3c(c12)CC(C(=O)O)CC3", "note": "(racemic) [Example 235, (RS)-4-[(5-Chloro-2-methoxyphenyl)amino]-6,7,8,9-tetrahydro-5H-pyrimido[4,5-b]indole-6-carboxylic acid]", "pIC50": 6.80},
      {"smiles": "c1nc(Nc2ccc3[nH]ncc3c2)c2c3c([nH]c2n1)CCC3", "note": "[Example 69, N-(1H-Indazol-5-yl)-5,6,7,8-tetrahydrocyclopenta[4,5]pyrrolo[2,3-d]pyrimidin-4-amine]", "pIC50": 6.29},
      {"smiles": "O=C(O)C1CCc2[nH]c3ncnc(N4CCc5ccccc54)c3c2C1", "note": "(racemic) [Example 185, (RS)-4-(2,3-Dihydro-1H-indol-1-yl)-6,7,8,9-tetrahydro-5H-pyrimido[4,5-b]indole-6-carboxylic acid]", "pIC50": 5.05},
      {"smiles": "O=C(NC1CC1)C1CCc2[nH]c3ncnc(Nc4ccccc4N4CCOCC4)c3c2C1", "note": "(racemic) [Example 203, (RS)—N-Cyclopropyl-4-{[2-(morpholin-4-yl)phenyl]amino}-6,7,8,9-tetrahydro-5H-pyrimido[4,5-b]indole-6-carboxamide]", "pIC50": 6.76},
      {"smiles": "O=C(Nc1ccccc1)C1CCc2[nH]c3ncnc(Nc4ccc5[nH]ncc5c4)c3c2C1", "note": "(racemic) [Example 16, (RS)-4-(1H-Indazol-5-ylamino)-N-phenyl-6,7,8,9-tetrahydro-5H-pyrimido[4,5-b]indole-6-carboxamide]", "pIC50": 7.82},
      {"smiles": "COCC1(OC)CCc2[nH]c3ncnc(Nc4cc5cn[nH]c5cc4OC)c3c2C1", "note": "(racemic) [Example 136]", "pIC50": 7.32},
      {"smiles": "Cc1ccc(Nc2ncnc3[nH]c4c(c23)CC(C(=O)NCCCS(C)(=O)=O)CC4)c(OC(F)F)c1", "note": "(racemic) [Example 156, (RS)-4-{[2-(Difluoromethoxy)-4-methylphenyl]amino}-N-[3-(methylsulfonyl)propyl]-6,7,8,9-tetrahydro-5H-pyrimido[4,5-b]indole-6-carboxamide]", "pIC50": "≤ 4.70"},
      {"smiles": "COc1ccc(C(F)(F)F)cc1Nc1ncnc2[nH]c3c(c12)CCCC3", "note": "[Example 119]", "pIC50": "≤ 4.70"},
      {"smiles": "FC1(F)CCc2[nH]c3ncnc(Nc4ccc5[nH]ncc5c4)c3c2C1", "note": "[Example 10, 6,6-Difluoro-N-(1H-indazol-5-yl)-6,7,8,9-tetrahydro-5H-pyrimido[4,5-b]indol-4-amine]", "pIC50": 7.62}
    ]}
  ]
}
